Reference: PubChem BioAssay (NCI)
“And” between values parts separate entries of the source, which are not always exact repeats. Equal entries are not always repeated.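 Method: 48-hour compound exposure of cells in 96-well plates, five concentrations, linear interpolation of endpoints. Abbreviation: GI50, concentration required for 50% inhibition of growth. TGI denotes the concentration required for complete inhibition of growth.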

How the values were obtained:
Assay in all cases: NCI tumour cell line growth inhibition, 48 h
786-0 renal = test system: 786-0 renal
A498 renal = test system: A498 renal
A549 NSCLC = test system: A549 NSCLC
ACHN renal = test system: ACHN renal
BT-549 breast = test system: BT-549 breast
CAKI-1 renal = test system: CAKI-1 renal
CCRF-CEM leukemia = test system: CCRF-CEM leukemia
COLO 205 colon = test system: COLO 205 colon
DU-145 prostate = test system: DU-145 prostate
EKVX NSCLC = test system: EKVX NSCLC
HCC-2998 colon = test system: HCC-2998 colon
HCT-116 colon = test system: HCT-116 colon
HCT-15 colon = test system: HCT-15 colon
HL-60(TB) leukemia = test system: HL-60(TB) leukemia
HOP-62 NSCLC = test system: HOP-62 NSCLC
HOP-92 NSCLC = test system: HOP-92 NSCLC
HS 578T breast = test system: HS 578T breast
HT29 colon = test system: HT29 colon
IGROV1 ovarian = test system: IGROV1 ovarian
K-562 leukemia = test system: K-562 leukemia
KM12 colon = test system: KM12 colon
LOX IMVI melanoma = test system: LOX IMVI melanoma
M14 melanoma = test system: M14 melanoma
MALME-3M melanoma = test system: MALME-3M melanoma
MCF7 breast = test system: MCF7 breast
MDA-MB-231 breast = test system: MDA-MB-231 breast
MDA-MB-435 = test system: MDA-MB-435
MDA-MB-468 breast = test system: MDA-MB-468 breast
MOLT-4 leukemia = test system: MOLT-4 leukemia
NCI-H226 lung = test system: NCI-H226 lung
NCI-H23 lung = test system: NCI-H23 lung
NCI-H460 lung = test system: NCI-H460 lung
NCI-H522 lung = test system: NCI-H522 lung
NCI/ADR-RES ovarian = test system: NCI/ADR-RES ovarian
OVCAR-3 ovarian = test system: OVCAR-3 ovarian
OVCAR-4 ovarian = test system: OVCAR-4 ovarian
OVCAR-5 ovarian = test system: OVCAR-5 ovarian
OVCAR-8 ovarian = test system: OVCAR-8 ovarian
PC-3 prostate = test system: PC-3 prostate
RPMI-8226 leukemia = test system: RPMI-8226 leukemia
RXF 393 renal = test system: RXF 393 renal
SF-268 CNS = test system: SF-268 CNS
SF-295 CNS = test system: SF-295 CNS
SF-539 CNS = test system: SF-539 CNS
SK-MEL-2 melanoma = test system: SK-MEL-2 melanoma
SK-MEL-28 melanoma = test system: SK-MEL-28 melanoma
SK-MEL-5 melanoma = test system: SK-MEL-5 melanoma
SK-OV-3 ovarian = test system: SK-OV-3 ovarian
SN12C renal = test system: SN12C renal
SNB-19 CNS = test system: SNB-19 CNS
SNB-75 CNS = test system: SNB-75 CNS
SR leukemia = test system: SR leukemia
SW-620 colon = test system: SW-620 colon
T-47D breast = test system: T-47D breast
TK-10 renal = test system: TK-10 renal
U251 CNS = test system: U251 CNS
UACC-257 melanoma = test system: UACC-257 melanoma
UACC-62 melanoma = test system: UACC-62 melanoma
UO-31 renal = test system: UO-31 renal

In the case of `COc1cc2cc(C(=O)N3C[C@@H](CCl)c4c3cc(OC(=O)N(CCC(=O)N3CCN(C)CC3)[C@H]3CCSSC3)c3ccccc43)[nH]c2c(OC)c1OC`, the GI50 (786-0 renal) is reported as 0.368 µM, the TGI (786-0 renal) is reported as 1.34 µM and the GI50 (A498 renal) is reported as 0.251 µM. The TGI (A498 renal) was 0.541 µM, the GI50 (A549 NSCLC) was 0.393 µM and the TGI (A549 NSCLC) was 1.63 µM. The GI50 (ACHN renal) was 0.0831 µM, the TGI (ACHN renal) was 0.571 µM and the GI50 (BT-549 breast) was 0.361 µM and 0.228 µM. For the same compound, the TGI (BT-549 breast) was 0.799 µM and 0.989 µM, the GI50 (CAKI-1 renal) was 0.272 µM and the TGI (CAKI-1 renal) was 4.49 µM. For the same compound, the GI50 (CCRF-CEM leukemia) was 0.559 µM and 0.219 µM, the GI50 (COLO 205 colon) was 0.354 µM and 0.342 µM and the TGI (COLO 205 colon) was 0.837 µM and 1.51 µM. For the same compound, the GI50 (DU-145 prostate) was 0.113 µM and 0.0585 µM, the TGI (DU-145 prostate) was 3.39 µM and 1.49 µM and the GI50 (EKVX NSCLC) was 0.365 µM and 0.315 µM. For the same compound, the TGI (EKVX NSCLC) was 1.04 µM and 1.9 µM, the GI50 (HCC-2998 colon) was 0.154 µM and 0.158 µM and the TGI (HCC-2998 colon) was 0.579 µM and 0.331 µM. The GI50 (HCT-116 colon) was 0.389 µM and 0.158 µM, the TGI (HCT-116 colon) was 3.62 µM and 0.558 µM and the GI50 (HCT-15 colon) was 0.271 µM and 0.26 µM. For the same compound, the TGI (HCT-15 colon) was 1.11 µM and 1.43 µM, the GI50 (HL-60(TB) leukemia) was 0.325 µM and 0.119 µM and the TGI (HL-60(TB) leukemia) was 2.79 µM and 0.952 µM. For the same compound, the GI50 (HOP-62 NSCLC) was 0.166 µM and 0.11 µM, the TGI (HOP-62 NSCLC) was 1.28 µM and 0.78 µM and the GI50 (HOP-92 NSCLC) was 0.657 µM and 0.346 µM. For the same compound, the TGI (HOP-92 NSCLC) was 2.13 µM and 1.83 µM, the GI50 (HS 578T breast) was 0.689 µM and 1.41 µM and the TGI (HS 578T breast) was 3.92 µM and 6.08 µM. The GI50 (HT29 colon) was 0.474 µM and 0.27 µM, the TGI (HT29 colon) was 1.73 µM and 1.05 µM and the GI50 (IGROV1 ovarian) was 0.436 µM and 0.501 µM. The GI50 (K-562 leukemia) was 0.604 µM and 0.162 µM, the TGI (K-562 leukemia) was 25 µM and > 100 µM and the GI50 (KM12 colon) was 0.535 µM and 0.268 µM. The TGI (KM12 colon) was 1.64 µM and 1.05 µM, the GI50 (LOX IMVI melanoma) was 0.295 µM and 0.208 µM and the TGI (LOX IMVI melanoma) was 0.781 µM and 0.891 µM. For the same compound, the GI50 (M14 melanoma) was 0.317 µM and 0.192 µM, the TGI (M14 melanoma) was 0.824 µM and 0.545 µM and the GI50 (MALME-3M melanoma) was 0.405 µM and 0.28 µM. The TGI (MALME-3M melanoma) was 0.796 µM and 0.744 µM, the GI50 (MCF7 breast) was 0.0557 µM and 0.0353 µM and the TGI (MCF7 breast) was 0.652 µM and 1.1 µM. The GI50 (MDA-MB-231 breast) was 0.516 µM and 0.579 µM, the TGI (MDA-MB-231 breast) was 1.14 µM and 8.19 µM and the GI50 (MDA-MB-435) was 0.404 µM and 0.213 µM. The TGI (MDA-MB-435) was 0.788 µM and 0.529 µM, the GI50 (MDA-MB-468 breast) was 0.167 µM and the TGI (MDA-MB-468 breast) was 0.389 µM. The GI50 (MOLT-4 leukemia) was 0.113 µM and 0.0897 µM, the GI50 (NCI-H226 lung) was 1.57 µM and 0.435 µM and the TGI (NCI-H226 lung) was 25 µM and 4.47 µM. The GI50 (NCI-H23 lung) was 0.0759 µM and 0.0553 µM, the TGI (NCI-H23 lung) was 0.358 µM and 0.254 µM and the GI50 (NCI-H460 lung) was 0.0996 µM and 0.0557 µM. The TGI (NCI-H460 lung) was 2.58 µM and 0.341 µM, the GI50 (NCI-H522 lung) was 0.433 µM and 0.263 µM and the TGI (NCI-H522 lung) was 1.11 µM and 0.979 µM. For the same compound, the GI50 (NCI/ADR-RES ovarian) was 0.292 µM, the TGI (NCI/ADR-RES ovarian) was 0.94 µM and the GI50 (OVCAR-3 ovarian) was 0.236 µM. The TGI (OVCAR-3 ovarian) was 0.581 µM, the GI50 (OVCAR-4 ovarian) was 0.513 µM and 0.464 µM and the TGI (OVCAR-4 ovarian) was 1.27 µM and 4.99 µM. For the same compound, the GI50 (OVCAR-5 ovarian) was 0.56 µM, the TGI (OVCAR-5 ovarian) was 1.75 µM and the GI50 (OVCAR-8 ovarian) was 0.275 µM and 0.186 µM. For the same compound, the GI50 (PC-3 prostate) was 0.48 µM and 0.722 µM, the TGI (PC-3 prostate) was 6.15 µM and 6.13 µM and the GI50 (RPMI-8226 leukemia) was 0.477 µM and 0.222 µM. For the same compound, the TGI (RPMI-8226 leukemia) was 1.85 µM and 1.36 µM, the GI50 (RXF 393 renal) was 0.322 µM and 0.149 µM and the TGI (RXF 393 renal) was 0.724 µM and 0.297 µM. The GI50 (SF-268 CNS) was 0.403 µM and 0.187 µM, the GI50 (SF-295 CNS) was 0.113 µM and 0.145 µM and the TGI (SF-295 CNS) was 1.75 µM and 0.545 µM. The GI50 (SF-539 CNS) was 0.284 µM and 0.167 µM, the TGI (SF-539 CNS) was 0.642 µM and 0.409 µM and the GI50 (SK-MEL-2 melanoma) was 0.417 µM and 0.214 µM. The TGI (SK-MEL-2 melanoma) was 0.777 µM and 0.381 µM, the GI50 (SK-MEL-28 melanoma) was 0.413 µM and 0.293 µM and the TGI (SK-MEL-28 melanoma) was 0.846 µM and 0.826 µM. For the same compound, the GI50 (SK-MEL-5 melanoma) was 0.327 µM, the TGI (SK-MEL-5 melanoma) was 0.656 µM and the GI50 (SK-OV-3 ovarian) was 0.313 µM and 0.262 µM. The TGI (SK-OV-3 ovarian) was 1.31 µM and 0.714 µM, the GI50 (SN12C renal) was 0.241 µM and 0.286 µM and the GI50 (SNB-19 CNS) was 0.258 µM and 0.252 µM. For the same compound, the GI50 (SNB-75 CNS) was 0.388 µM and 0.181 µM, the TGI (SNB-75 CNS) was 1.08 µM and 0.905 µM and the GI50 (SR leukemia) was 0.0567 µM and 0.0342 µM. The GI50 (SW-620 colon) was 0.399 µM and 0.221 µM, the TGI (SW-620 colon) was 1.9 µM and 0.911 µM and the GI50 (T-47D breast) was 0.631 µM and 0.696 µM. The TGI (T-47D breast) was 25 µM and 7.83 µM, the GI50 (TK-10 renal) was 3.37 µM and the TGI (TK-10 renal) was 11 µM. The GI50 (U251 CNS) was 0.299 µM and 0.164 µM, the TGI (U251 CNS) was 2.8 µM and 0.423 µM and the GI50 (UACC-257 melanoma) was 0.475 µM and 0.63 µM. The TGI (UACC-257 melanoma) was 1.15 µM and 3.71 µM, the GI50 (UACC-62 melanoma) was 0.259 µM and 0.271 µM and the TGI (UACC-62 melanoma) was 0.587 µM and 1.22 µM. For the same compound, the GI50 (UO-31 renal) was 0.333 µM and 0.221 µM and the TGI (UO-31 renal) was 0.948 µM and 0.545 µM.
